# According to article PMC9848270, “Synthesis and biological assessment of indole derivatives containing penta-heterocycles scaffold as novel anticancer agents towards A549 and K562 cells” (Journal of Enzyme Inhibition and Medicinal Chemistry, 2023):
# Read-outs that look alike come from different tables or passages of the source.
# Tests used:
# [1] = tested on: human chronic myeloid leukaemia cells (K562); assay: MTT antiproliferative assay, K562; type: cell-based
# Outline: (§1)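 Cells seeded at 10^4 per well in DMEM or RPMI 1640, pre-cultured 24 h before compound addition. Antiproliferative effect measured by MTT, with 5-Fluorouracil and Gefitinib as references; IC50 derived from concentration–response fitting.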
# [2] = tested on: MDM2 and p53 levels in K562; assay: Western blot, K562; type: cell-based, human; conditions: 0.5 µM, 48 h
# Description: (§2) Cells were treated with different concentrations of compound for 48 h. After incubation, the cells were washed and collected. Total cell extracts were prepared with RIPA buffer, containing protease inhibitor and phosphatase inhibitor. The lysate was incubated at 0 °C for 60 min, and centrifuged at 12,000 rpm for 15 min at 4 °C to remove cellular debris. Next, the protein concentration was detected using BCA protein concentration assay kit (Beyotime, Shanghai). 20 µg of total protein was subjected to gel electrophoresis and transferred to PVDF membranes (Millipore, Burlington, MA, USA). After blocking in 5% BSA blocking buffer for 60 min, then incubated with primary antibody overnight at 4 °C, washed three times with TBST for 5 min each, followed by incubation with secondary antibody and washed. The blot was developed and exposed by chemiluminescence developer solution, which was placed on a chemiluminescence developer (Pierce, Rockford, Illinois, USA).
# A549 cells [3] = assay: Wound healing migration assay, A549; type: cell-based, human; conditions: 1 µM
# Description: After 24 h of growth, cells were placed in a 6-well plate, scratched using a 10 µL pipet tip on the cell surface. Then, gently wash twice with medium to remove the detached cells. The cells were treated with compound 10 b with 0.5 and 1.0 µM followed by 48 h incubation and photographed using an inverted microscope.
# [4] = tested on: human non-small cell lung cancer cells (A549); assay: MTT antiproliferative assay, A549; type: cell-based
# Outline: as §1
# K562 cells [5] = assay: Cell cycle analysis (PI staining, flow cytometry), K562; type: cell-based, human
# Description: (§3) A549 or K562 cells were separately seeded at 4.0 × 10^5cells/well in six-well plates and incubated for 24 h until adherent. […] After treatment, the cells were collected, and washed twice with pre-cooled PBS and then fixed with ice-cold ethanol (70%), subsequently kept 4 °C for overnight. After washing twice with PBS, cells were incubated at 37 °C with 100 µ L RNase A for 30 min. After this, cells were incubated with 400 µL PI for 30 min at 4 °C. Finally, the cell cycle distribution of compound 10 b was analysed via the BD FACSCalibur flow cytometry (American BD Corporation Shanghai Co. Ltd.)
# [6] = MTT cytotoxicity, normal cell line HEK293; type: cell-based, human; conditions: human
# [7] = tested on: normal cell line (HEK293); assay: MTT cytotoxicity, normal cell line HEK293; type: cell-based, human; conditions: Homo sapiens, HEK293; 10 μM; read-out: Inhibition rate, HEK293
# K562 cells [8] = assay: Annexin V-FITC/PI apoptosis flow cytometry, K562; type: cell-based, human; conditions: 48 h, annexin V-FITC/PI
# Description: (§4) Annexin-V/FITC assay, after the adherent cells grew stably in the 6-well plate, each group was reacted with different concentrations of compound solutions for 48 h. Then, cells were collected by trypsinization without EDTA, rinsed twice with PBS, followed by the Annexin V-FITC/PI apoptosis detection kit (Solarbio, Bei Jing, China) according to the kit instructions, flow cytometry by BD FACSCalibur instrument (American BD Company Shanghai Co., Ltd.).
# [9] = tested on: human prostate cancer cells (PC-3); assay: MTT antiproliferative assay, PC-3; type: cell-based; conditions: for IC50: 48 h, MTT assay, read-out: In vitro cytotoxicity IC50, PC-3
# Outline: as §1
# A549 cells [10] = assay: DAPI staining, A549; type: cell-based, human; conditions: 1, 2 and 4 µM, 48 h
# Description: DAPI staining assay, A549 or K562 cells were separately seeded at 4.0 × 10^5 cells per well in six–well plates and incubated for 24 h until adherent. Next, the cells were treated with 10 b at 0, 1, 2 and 4 µM for 48 h. Then the cells were fixed with 4% paraformaldehyde for 15 min, and 1 ml/well of DAPI staining dye was added for 20 min in the dark. After adding the anti-fluorescence quencher, the cells can be imaged by an inverted fluorescence microscope.
# A549 cells [11] = assay: Cell cycle analysis (PI staining, flow cytometry), A549; type: cell-based, human
# Description: as §3
# [12] = tested on: human liver cancer cells (HepG2); assay: MTT antiproliferative assay, HepG2; type: cell-based
# Outline: as §1
# [13] = tested on: EGFR, p-EGFR, Akt and p-Akt levels in A549; assay: Western blot, A549; type: cell-based, human; conditions: 0.5 and 1 μM, 48 h
# Description: as §2
# A549 cells [14] = assay: Annexin V-FITC/PI apoptosis flow cytometry, A549; type: cell-based, human; conditions: 48 h, annexin V-FITC/PI
# Description: as §4
# MCF-7 cell = tested on: MCF-7 cell; set-up: method as in PMID 33130342; conditions: cited from earlier work
# [15] = target: epidermal growth factor receptor (EGFR); conditions: read-out: EGFR inhibition IC50; cited from earlier work
smiles,measurement,setting,value
"COc1cc(-c2nnc(SCC(=O)Nc3cc(-c4c[nH]c5ccccc45)n[nH]3)s2)cc(OC)c1OC [Compound 10b, N-(3-(1H-indol-3-yl)-1H-pyrazol-5-yl)-2-((5-(3,4,5-trimethoxyphenyl)-1,3,4-thiadiazol-2-yl)thio)acetamide]",inhibition at 10 µM,"[1]; K562, 10 μM, read-out: Inhibition rate, K562",97.2 ± 0.526%
same,IC50,"[1]; K562, 48 h, MTT assay, 48 h, read-out: In vitro cytotoxicity IC50, K562",13.2 ± 10 nM
same,IC50,"[1]; K562, Table 2, unit inferred, repeats Table 1, read-out: K562 (IC50, Table 2)",13.2 ± 10 nM
same,IC50,"[1]; K562, as stated in abstract and conclusion, read-out: IC50 against K562",10 nM
same,MDM2 expression in K562,[2],significantly downregulated
same,p53 protein level in K562,[2],upregulated in a certain extent
same,"migration of A549 cells, in words",A549 cells [3],could inhibit the migration of A549 cells
same,inhibition at 10 µM,"[4]; A549, 10 μM, read-out: Inhibition rate, A549",96.2 ± 0.737%
same,IC50,"[4]; A549, 48 h, MTT assay, 48 h, read-out: In vitro cytotoxicity IC50, A549",120 nM
same,IC50,"[4]; A549, Table 2, unit inferred, repeats Table 1, read-out: A549 (IC50, Table 2)",124 ± 50 nM
same,IC50,"[4]; A549, as stated in abstract and conclusion, read-out: IC50 against A549",12 nM
same,"DNA contents of the live population, G2/M phase, K562","K562 cells [5]; 4 µM, 48 h",27.60%
same,"DNA contents of the live population, S phase, K562","K562 cells [5]; 4 µM, 48 h",26.47%
same,"cell cycle arrest in words, K562","K562 cells [5]; dose-dependent, 1, 2, 4 µM",arresting cells in the G2/M phase
same,IC50 at 48 h,"[6]; HEK293 cells (normal cell line), MTT assay, 48 h, normal cell line, CC50, read-out: In vitro cytotoxicity IC50, HEK293",1120 ± 1390 nM
same,CC50,"[6]; HEK293 cells, Table 2, unit inferred, repeats Table 1",1120 ± 1390 nM
same,inhibition at 10 µM,[7],77.9 ± 2.08%
same,"Q2, late apoptotic cells, K562",K562 cells [8]; 1 μM,58.2%
same,"Q2, late apoptotic cells, K562",K562 cells [8]; 2 μM,67.8%
same,"Q2, late apoptotic cells, K562",K562 cells [8]; 4 μM,73.2%
same,IC50,[9]; Homo sapiens,850 nM
same,inhibition at 10 µM,"[9]; Homo sapiens, 10 μM, read-out: Inhibition rate, PC-3",88.4 ± 5.99%
same,IC50,[9],853 ± 720 nM
same,"apoptosis by DAPI staining, in words",A549 cells [10],induced apoptosis
same,"DNA contents of the live population, G0/G1 phase, A549","A549 cells [11]; 4 µM, 48 h",38.60%
same,"DNA contents of the live population, G2/M phase, A549","A549 cells [11]; 4 µM, 48 h",24.33%
same,"DNA contents of the live population, S phase, A549","A549 cells [11]; 4 µM, 48 h",27.47%
same,"cell cycle arrest in words, A549","A549 cells [11]; dose-dependent, 1, 2, 4 µM",arresting cells in the G2/M phase
same,inhibition at 10 µM,"[12]; 10 μM, read-out: Inhibition rate, HepG2",92.1 ± 3.01%
same,IC50,"[12]; MTT assay, 48 h, read-out: In vitro cytotoxicity IC50, HepG2",210 ± 70 nM
same,p-Akt protein level in A549,[13],downregulated in a dose dependently manner
same,p-EGFR protein level in A549,[13],downregulated in a dose dependently manner
same,"Q2, late apoptotic cells, A549",A549 cells [14]; 1 μM,8.36%
same,"Q2, late apoptotic cells, A549",A549 cells [14]; 2 μM,16.0%
same,"Q2, late apoptotic cells, A549",A549 cells [14]; 4 μM,35.7%
O=C(Nc1nnc(SCc2ccc(Cl)c(Cl)c2)s1)c1cn(C2CC2)c2cc(N3CCNCC3)c(F)cc2c1=O [Compound B],"apoptosis in MCF-7 cell, in words",MCF-7 cell,inducing apoptosis significantly
C=CCSc1nnc(-c2cc3ccccc3[nH]2)n1N=Cc1c[nH]c2ccccc12 [Compound C],IC50,[15],19.8 nM
